pIC50: −log10 of the molar value.
Tests used:
Settings in all cases: alternatively SPA-based assay
human αVβ6 = biological target: T1, human αVβ6 (Homo sapiens, UniProt P06756+P18564); test: human αVβ6 HTRF binding assay
T1 construct: purchased R & D systems 3817-AV
Summary of the method: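 Biotinylated recombinant human αVβ6 (1.25 nM final) incubated with FITC-fibronectin (5 nM final) 1 h at RT, then streptavidin-terbium (0.625 nM final) added and left overnight at RT in the dark before HTRF reading. Buffer: 20 mM Tris pH 7.4, 1 mM MgCl2, 1 mM MnCl2, 0.01% Tween 20, 0.01% BSA.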

human αVβ3 = human αVβ3 (Homo sapiens, UniProt P05106+P06756); test: human αVβ3 HTRF binding assay
Sequence of human αVβ3 (P06756 31-992 limits assumed): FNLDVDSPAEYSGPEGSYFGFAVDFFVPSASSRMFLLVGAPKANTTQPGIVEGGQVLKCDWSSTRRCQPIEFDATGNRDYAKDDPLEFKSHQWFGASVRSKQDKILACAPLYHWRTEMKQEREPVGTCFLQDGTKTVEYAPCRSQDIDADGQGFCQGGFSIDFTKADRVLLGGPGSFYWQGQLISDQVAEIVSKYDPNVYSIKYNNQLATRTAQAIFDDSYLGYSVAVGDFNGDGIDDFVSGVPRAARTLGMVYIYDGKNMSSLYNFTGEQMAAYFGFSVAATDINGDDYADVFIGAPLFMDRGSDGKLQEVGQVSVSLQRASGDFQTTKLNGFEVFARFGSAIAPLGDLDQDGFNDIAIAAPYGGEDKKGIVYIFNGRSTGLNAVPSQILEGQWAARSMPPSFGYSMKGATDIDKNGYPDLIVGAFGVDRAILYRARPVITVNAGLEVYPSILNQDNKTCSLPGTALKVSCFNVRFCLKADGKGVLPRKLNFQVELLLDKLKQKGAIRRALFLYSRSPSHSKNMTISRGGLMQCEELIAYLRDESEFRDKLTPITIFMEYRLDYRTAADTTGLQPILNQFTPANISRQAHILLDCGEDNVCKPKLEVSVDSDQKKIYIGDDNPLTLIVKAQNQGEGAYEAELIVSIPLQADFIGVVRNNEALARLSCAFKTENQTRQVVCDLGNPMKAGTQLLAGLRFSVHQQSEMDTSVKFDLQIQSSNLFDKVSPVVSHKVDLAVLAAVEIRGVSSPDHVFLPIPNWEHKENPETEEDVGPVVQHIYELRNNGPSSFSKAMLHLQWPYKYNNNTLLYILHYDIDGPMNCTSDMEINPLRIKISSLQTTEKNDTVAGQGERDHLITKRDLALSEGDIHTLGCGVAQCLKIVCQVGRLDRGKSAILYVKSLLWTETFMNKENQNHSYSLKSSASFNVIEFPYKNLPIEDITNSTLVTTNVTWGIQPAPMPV
Sequence of human αVβ3 (P05106 27-718 limits assumed): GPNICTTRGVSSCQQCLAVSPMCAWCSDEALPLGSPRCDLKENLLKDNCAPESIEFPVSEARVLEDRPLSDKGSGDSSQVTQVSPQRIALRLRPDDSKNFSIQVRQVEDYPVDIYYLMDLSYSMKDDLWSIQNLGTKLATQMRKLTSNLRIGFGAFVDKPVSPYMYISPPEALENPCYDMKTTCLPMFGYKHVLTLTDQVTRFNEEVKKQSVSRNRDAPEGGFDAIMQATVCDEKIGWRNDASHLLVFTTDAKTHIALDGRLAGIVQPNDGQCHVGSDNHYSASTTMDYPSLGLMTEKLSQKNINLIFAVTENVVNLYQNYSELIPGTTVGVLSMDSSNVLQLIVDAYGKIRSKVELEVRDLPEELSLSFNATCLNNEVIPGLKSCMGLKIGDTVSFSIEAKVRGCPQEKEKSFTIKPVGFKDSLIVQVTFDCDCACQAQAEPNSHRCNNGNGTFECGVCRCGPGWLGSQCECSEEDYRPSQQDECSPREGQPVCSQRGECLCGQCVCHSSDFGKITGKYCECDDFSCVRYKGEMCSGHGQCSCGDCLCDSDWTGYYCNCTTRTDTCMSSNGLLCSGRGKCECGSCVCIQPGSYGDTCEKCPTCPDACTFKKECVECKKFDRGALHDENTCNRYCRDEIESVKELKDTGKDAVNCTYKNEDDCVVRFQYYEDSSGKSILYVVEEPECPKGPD
Method: (§1) All binding assays used the HTRF (homogeneous time resolved fluorescence) technology from Cisbio International, therefore all assays are described as HTRF binding assays. The assay results for the Examples are listed above together with the characterization data. The HTRF binding assays are established for the following integrins: human αVβ6, human αVβ1, human αVβ3, human αVβ5, and human αVβ8. All assays used the following assay buffer: 20 mM Tris, pH 7.4, 1 mM MgCl2, 1 mM MnCl2, 0.01% Tween 20, and 0.01% BSA. Alternatively, a SPA-based assay was used for evaluation of receptor binding.
(§2) The SPA-based assay was carried out according to the protocol and procedures similar to the ones described in the following reference with appropriate modifications to agents and ligands which are readily understood by one skilled in the art: Pachter J A, Zhang R, Mayer-Ezell R., “Scintillation proximity assay to measure binding of soluble fibronectin to antibody-captured αVβ1 integrin” Anal Biochem. 1995 Sep. 1; 230(1):101-7.

human αVβ5 = human αVβ5 (Homo sapiens, UniProt P06756+P18084); test: human αVβ5 HTRF binding assay
Sequence of human αVβ5 (P06756 31-992 limits assumed): as the sequence (P06756 31-992 limits assumed) above
Sequence of human αVβ5 (P18084 24-719 limits assumed): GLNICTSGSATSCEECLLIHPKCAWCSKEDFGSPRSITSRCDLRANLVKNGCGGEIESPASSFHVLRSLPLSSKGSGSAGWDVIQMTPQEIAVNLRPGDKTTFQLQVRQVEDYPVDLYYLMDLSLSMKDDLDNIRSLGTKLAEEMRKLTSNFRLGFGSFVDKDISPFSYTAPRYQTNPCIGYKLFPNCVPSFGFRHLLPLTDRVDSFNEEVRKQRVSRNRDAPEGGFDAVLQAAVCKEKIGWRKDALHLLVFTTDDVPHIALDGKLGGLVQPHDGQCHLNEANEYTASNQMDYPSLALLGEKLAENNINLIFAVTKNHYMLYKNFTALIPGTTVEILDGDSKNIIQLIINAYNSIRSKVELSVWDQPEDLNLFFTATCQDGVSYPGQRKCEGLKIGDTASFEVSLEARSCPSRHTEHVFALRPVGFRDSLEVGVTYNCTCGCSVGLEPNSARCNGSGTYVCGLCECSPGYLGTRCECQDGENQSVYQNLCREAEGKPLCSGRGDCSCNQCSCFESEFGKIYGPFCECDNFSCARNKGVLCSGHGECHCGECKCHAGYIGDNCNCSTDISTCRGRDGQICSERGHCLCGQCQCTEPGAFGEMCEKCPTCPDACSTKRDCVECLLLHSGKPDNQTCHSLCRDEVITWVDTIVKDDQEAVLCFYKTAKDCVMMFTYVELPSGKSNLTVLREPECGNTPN
Method: as §1, §2

human αVβ8 = human αVβ8 (Homo sapiens, UniProt P06756+P26012); test: human αVβ8 HTRF binding assay
Sequence of human αVβ8 (P06756 31-992 limits assumed): as the sequence (P06756 31-992 limits assumed) above
Sequence of human αVβ8 (P26012 43-684 limits assumed): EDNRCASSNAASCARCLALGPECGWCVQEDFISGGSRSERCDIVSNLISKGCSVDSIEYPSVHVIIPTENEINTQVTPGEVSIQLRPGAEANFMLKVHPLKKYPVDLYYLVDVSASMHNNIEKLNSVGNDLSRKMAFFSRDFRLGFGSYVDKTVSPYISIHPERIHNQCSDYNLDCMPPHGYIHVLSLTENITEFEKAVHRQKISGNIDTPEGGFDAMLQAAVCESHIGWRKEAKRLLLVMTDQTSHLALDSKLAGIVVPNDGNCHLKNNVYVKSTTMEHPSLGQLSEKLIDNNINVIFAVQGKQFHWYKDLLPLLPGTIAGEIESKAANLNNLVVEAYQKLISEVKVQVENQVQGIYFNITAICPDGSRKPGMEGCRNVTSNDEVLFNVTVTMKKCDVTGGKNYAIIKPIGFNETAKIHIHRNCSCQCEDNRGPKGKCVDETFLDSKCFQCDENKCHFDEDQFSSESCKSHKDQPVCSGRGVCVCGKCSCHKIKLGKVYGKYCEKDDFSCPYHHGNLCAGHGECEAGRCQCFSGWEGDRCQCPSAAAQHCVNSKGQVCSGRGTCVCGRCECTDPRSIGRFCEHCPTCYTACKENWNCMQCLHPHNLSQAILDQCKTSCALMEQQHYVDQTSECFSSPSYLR
Method: as §1, §2

human αVβ1 = human αVβ1 (Homo sapiens, UniProt P05556+P06756); test: human αVβ1 HTRF binding assay
Sequence of human αVβ1 (P06756 31-992 limits assumed): as the sequence (P06756 31-992 limits assumed) above
Sequence of human αVβ1 (P05556 21-728 limits assumed): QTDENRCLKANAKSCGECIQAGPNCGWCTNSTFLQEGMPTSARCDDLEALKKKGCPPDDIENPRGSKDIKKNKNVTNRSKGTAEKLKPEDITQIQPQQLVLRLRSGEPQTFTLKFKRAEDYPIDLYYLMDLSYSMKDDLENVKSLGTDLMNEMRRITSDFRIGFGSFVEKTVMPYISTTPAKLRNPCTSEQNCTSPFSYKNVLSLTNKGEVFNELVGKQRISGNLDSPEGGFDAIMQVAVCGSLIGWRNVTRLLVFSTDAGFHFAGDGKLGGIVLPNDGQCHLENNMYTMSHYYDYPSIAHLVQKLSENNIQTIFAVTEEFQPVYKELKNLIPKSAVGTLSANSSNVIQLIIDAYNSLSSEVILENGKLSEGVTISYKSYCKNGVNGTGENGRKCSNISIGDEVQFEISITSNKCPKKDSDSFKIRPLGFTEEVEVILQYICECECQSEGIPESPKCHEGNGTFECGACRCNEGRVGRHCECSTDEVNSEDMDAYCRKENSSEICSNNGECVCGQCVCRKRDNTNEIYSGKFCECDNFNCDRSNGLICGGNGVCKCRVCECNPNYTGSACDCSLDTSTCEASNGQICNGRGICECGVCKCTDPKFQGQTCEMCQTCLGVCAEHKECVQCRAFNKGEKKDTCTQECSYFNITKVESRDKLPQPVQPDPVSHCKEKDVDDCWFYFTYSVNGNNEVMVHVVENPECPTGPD
Method: as §1, §2

T1 sequence (P06756 31-992 limits assumed): as the sequence (P06756 31-992 limits assumed) above
T1 sequence (P18564 22-707 limits assumed): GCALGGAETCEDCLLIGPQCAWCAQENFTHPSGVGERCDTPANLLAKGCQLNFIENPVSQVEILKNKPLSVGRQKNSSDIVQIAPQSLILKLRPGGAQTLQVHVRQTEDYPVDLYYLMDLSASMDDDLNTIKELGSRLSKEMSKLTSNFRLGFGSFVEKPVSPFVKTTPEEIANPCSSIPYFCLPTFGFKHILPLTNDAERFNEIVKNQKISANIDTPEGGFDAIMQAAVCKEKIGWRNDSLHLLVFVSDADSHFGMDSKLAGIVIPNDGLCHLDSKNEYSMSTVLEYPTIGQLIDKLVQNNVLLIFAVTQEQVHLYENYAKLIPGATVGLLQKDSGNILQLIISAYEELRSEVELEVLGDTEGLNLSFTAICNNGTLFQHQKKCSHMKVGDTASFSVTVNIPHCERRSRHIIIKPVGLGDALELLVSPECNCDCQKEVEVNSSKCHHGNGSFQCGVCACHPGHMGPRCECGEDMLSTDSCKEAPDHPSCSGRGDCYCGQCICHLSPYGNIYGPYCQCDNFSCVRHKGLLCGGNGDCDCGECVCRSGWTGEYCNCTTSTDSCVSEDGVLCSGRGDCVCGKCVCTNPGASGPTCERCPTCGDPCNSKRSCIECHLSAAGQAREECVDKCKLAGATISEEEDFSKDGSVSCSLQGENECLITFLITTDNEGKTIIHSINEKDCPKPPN

Row | SMILES | pIC50 (human αVβ6) | pIC50 (human αVβ3) | pIC50 (human αVβ5) | pIC50 (human αVβ8) | pIC50 (human αVβ1)
1 | O=C(O)C[C@H](NC(=O)[C@H]1C[C@H](CCc2ccc3c(n2)NCCC3)C1)c1cncnc1 [Example 90] | 8.77 | 6.92 | – | 5.96 | 6.28
2 | O=C(O)C[C@@H](c1ccc2c(c1)CCO2)N1CC(CCCCc2ccc3c(n2)NCCC3)C1=O (stereo partly drawn) [Example 110] | 8.85 | 8.15 | 7.47 | 7.32 | 6.68
3 | COc1ccc([C@H](CC(=O)O)NC(=O)N2CC(CCc3ccc4c(n3)NCCC4)C2)cn1 [Example 6, (S)-3-(6-Methoxypyridin-3-yl)-3-(3-(2-(5,6,7,8-tetrahydro-1,8-naphthyridin-2-yl)ethyl)azetidine-1-carboxamido)propanoic acid] | 8.55 | 8.20 | 8.11 | 6.37 | 6.29
4 | COc1ncc([C@H](CC(=O)O)N2CC(CCCCc3ccc4c(n3)NCCC4)C2=O)cn1 (stereo partly drawn) [Example 69] | 8.49 | 8.75 | 9.49 | 5.70 | 5.91
5 | COc1ccc([C@H](CC(=O)O)NC(=O)N2CC(CCc3ccc4c(n3)NCCC4)C2)cc1F [Example 63] | 8.65 | 8.55 | 8.03 | 6.39 | 6.73
6 | O=C(O)C[C@H](NC(=O)N1CC(CCc2ccc3c(n2)NCCC3)C1)c1cnc2ccccc2c1 [Example 96] | 8.72 | 8.64 | 8.89 | 6.92 | 6.61
7 | O=C(O)C[C@@H](c1ccc2c(c1)OCC2)N1CC(CCCCc2ccc3c(n2)NCCC3)C1=O (stereo partly drawn) [Example 104] | 8.65 | 8.62 | – | 6.96 | 6.48
8 | O=C(O)C[C@H](NC(=O)[C@H]1C[C@@H](CCc2ccc3c(n2)NCCC3)C1)c1ccc2c(c1)OCC2 [Example 89] | 8.66 | 8.82 | – | 6.60 | –
9 | O=C(O)C[C@@H](c1cnc2ccccc2c1)N1CC(CCCCc2ccc3c(n2)NCCC3)C1=O (stereo partly drawn) [Example 106] | 8.70 | 8.60 | 8.26 | 6.57 | 6.66
10 | COc1ncc([C@H](CC(=O)O)NC(=O)[C@H]2C[C@@H](CCc3ccc4c(n3)NCCC4)C2)cn1 [Example 83] | 8.70 | 8.49 | 6.82 | 5.85 | 5.40
11 | Cc1ncc([C@H](CC(=O)O)N2CC(CCCCc3ccc4c(n3)NCCC4)C2)cn1 [Example 26, (S)-3-(2-Methylpyrimidin-5-yl)-3-(3-(4-(5,6,7,8-tetrahydro-1,8-naphthyridin-2-yl)butyl)azetidin-1-yl)propanoic acid] | 8.95 | 8.75 | 8.70 | – | 5.06
12 | Cc1ncc([C@H](CC(=O)O)NC(=O)[C@H]2C[C@H](CCc3ccc4c(n3)NCCC4)C2)cn1 [Example 86] | 8.82 | 8.57 | – | 6.10 | –
13 | COc1ccc(C(CC(=O)O)N2CC3(CC(Cc4ccc5c(n4)NCCC5)C3)C2)cn1 (stereo not drawn) [Example 208, 3-(6-methoxypyridin-3-yl)-3-(6-((5,6,7,8-tetrahydro-1,8-naphthyridin-2-yl)methyl)-2-azaspiro[3.3]heptan-2-yl)propanoic acid] | 8.62 | – | – | – | –
14 | COc1ccc(C(CC(=O)O)C2CC3(CC(CCc4ccc5c(n4)NCCC5)C3)C2)cn1 (stereo not drawn) [Example 141] | 8.54 | – | – | – | –
15 | Cc1ncc([C@@H](CC(=O)O)N2CC(OCCCc3ccc4c(n3)NCCC4)C2)cn1 [example 132, (R)-3-(2-methylpyrimidin-5-yl)-3-(3-(3-(5,6,7,8-tetrahydro-1,8-naphthyridin-2-yl)propoxy)azetidin-1-yl)propanoic acid] | 7.60 | – | – | – | –
16 | O=C(O)C[C@@H](c1ccc2c(c1)CCO2)N1CC(CCCCc2ccc3c(n2)NCCC3)C1=O (stereo partly drawn) [Example 111] | 8.22 | – | – | – | –
17 | O=C(O)C[C@@H](c1ccc2c(c1)OCC2)N1CC(CCCCc2ccc3c(n2)NCCC3)C1=O (stereo partly drawn) [Example 105] | 8.41 | – | – | – | –
18 | O=C(O)CC(c1ccc(N2CCOCC2)nc1)C1CC2(CC(CCc3ccc4c(n3)NCCC4)C2)C1 (stereo not drawn) [Example 144] | 8.31 | – | – | – | –

Second part, the compound after the results:

Row | pIC50 (human αVβ6) | pIC50 (human αVβ3) | pIC50 (human αVβ5) | pIC50 (human αVβ8) | pIC50 (human αVβ1) | SMILES
19 | 9.12 | 8.42 | 8.70 | 8.03 | – | Cc1cc(C)c(S(=O)(=O)N[C@@H](CNC(=O)C2CN(CCc3ccc4c(n3)NCCC4)C2)C(=O)O)c(C)c1 [Example 36]
20 | 8.96 | 8.42 | 8.06 | 6.03 | 5.66 | Cc1ncc([C@H](CC(=O)O)NC(=O)[C@H]2C[C@@H](CCc3ccc4c(n3)NCCC4)C2)cn1 [Example 87]
21 | 9.19 | 8.57 | 9.33 | 6.57 | 7.06 | COc1ccc([C@H](CC(=O)O)NC(=O)[C@H]2C[C@H](CCc3ccc4c(n3)NCCC4)C2)cn1 [Example 59]
22 | 9.36 | 8.62 | 9.82 | 7.21 | 8.12 | O=C(N[C@@H](CNC(=O)C1CC(CCc2ccc3c(n2)NCCC3)C1)C(=O)O)OCc1ccccc1 (stereo partly drawn) [Example 58]
23 | 9.48 | 8.68 | 9.36 | 7.82 | – | Cc1cc(C)c(S(=O)(=O)N[C@@H](CNC(=O)[C@H]2C[C@@H](CCc3ccc4c(n3)NCCC4)C2)C(=O)O)c(C)c1 [Example 51]
24 | 9.01 | 8.38 | 9.38 | 7.42 | 7.43 | O=C(N[C@@H](CNC(=O)[C@H]1C[C@H](CCc2ccc3c(n2)NCCC3)C1)C(=O)O)OCc1ccccc1 [Example 78]
25 | 9.19 | 8.36 | 9.00 | 6.55 | 6.15 | O=C(O)C[C@H](NC(=O)N1CC(CCc2ccc3c(n2)NCCC3)C1)c1ccc2c(c1)OCC2 [Example 97]
26 | 9.24 | 8.70 | 9.24 | 7.26 | 7.17 | COc1ccc([C@H](CC(=O)O)NC(=O)C2CC(CCc3ccc4c(n3)NCCC4)C2)cn1 (stereo partly drawn) [Example 56]
27 | 9.22 | 8.39 | 8.70 | 7.52 | 7.08 | Cc1cc(C)c(S(=O)(=O)N[C@@H](CNC(=O)C2(F)CN(CCc3ccc4c(n3)NCCC4)C2)C(=O)O)c(C)c1 [Example 13, (S)-3-(3-Fluoro-1-(2-(5,6,7,8-tetrahydro-1,8-naphthyridin-2-yl)ethyl)azetidine-3-carboxamido)-2-(2,4,6-trimethylphenylsulfonamido)propanoic acid]
28 | 9.43 | 8.68 | 9.70 | 7.82 | 8.51 | Cc1cc(C)c(S(=O)(=O)N[C@@H](CNC(=O)[C@H]2C[C@H](CCc3ccc4c(n3)NCCC4)C2)C(=O)O)c(C)c1 [Example 52]
29 | 9.11 | 8.38 | 7.82 | 6.33 | 6.70 | COc1ncc([C@H](CC(=O)O)NC(=O)[C@H]2C[C@H](CCc3ccc4c(n3)NCCC4)C2)cn1 [Example 82]
30 | 9.21 | 8.64 | 8.68 | 7.31 | 6.05 | O=C(O)C[C@H](NC(=O)C1(F)CN(CCc2ccc3c(n2)NCCC3)C1)c1cnc2ccccc2c1 [Example 80]
31 | 9.27 | 8.70 | 11.00 | 7.09 | 7.32 | O=C(N[C@@H](CNC(=O)[C@H]1C[C@@H](CCc2ccc3c(n2)NCCC3)C1)C(=O)O)OCc1ccccc1 [Example 77]
32 | 9.06 | 8.57 | 9.00 | 6.72 | 6.82 | O=C(O)C[C@H](NC(=O)[C@H]1C[C@H](CCc2ccc3c(n2)NCCC3)C1)c1ccc2c(c1)OCC2 [Example 88]
33 | 9.30 | 8.51 | 9.52 | 7.05 | 7.55 | O=C(N[C@@H](CNC(=O)C1(F)CN(CCc2ccc3c(n2)NCCC3)C1)C(=O)O)OCc1ccccc1 [Example 45]
34 | 9.24 | – | – | 7.96 | – | COc1ccc([C@H](CC(=O)O)N2CC(CCCCc3ccc4c(n3)NCCC4)C2)cc1F [Example 27, (S)-3-(3-Fluoro-4-methoxyphenyl)-3-(3-(4-(5,6,7,8-tetrahydro-1,8-naphthyridin-2-yl)butyl)azetidin-1-yl)propanoic acid]
35 | 9.17 | 8.68 | – | 6.85 | 6.48 | O=C(O)C[C@H](NC(=O)[C@H]1C[C@@H](CCc2ccc3c(n2)NCCC3)C1)c1cnc2ccccc2c1 [Example 85]
36 | 9.28 | 8.62 | 8.74 | 6.89 | 7.42 | COc1ccc([C@H](CC(=O)O)NC(=O)[C@H]2C[C@H](CCc3ccc4c(n3)NCCC4)C2)cc1F [Example 53]
37 | 9.03 | – | – | – | – | COc1ccc([C@H](CC(=O)O)NC(=O)C2CC(CCC3CCc4cccnc4N3)C2)cn1 (stereo partly drawn) [Example 57]

— US11639353B2, “Cyclobutanes- and azetidine-containing mono and spirocyclic compounds as αV integrin inhibitors” (BRISTOL-MYERS SQUIBB COMPANY, priority 2016, dated 2023)
